Paper PMC5511785 (Journal of pharmaceutical sciences, 2017)
Where two headings read alike, the source gives them in different places.

Assays:
[1] = tested on: OATP1B1; test: Immunoblot of total OATP1B1 protein in HEK293-OATP1B1 cells; format: cell-based, human; settings: 10 μM, 1 h
[2] = cited from earlier work
[3] = tested on: OATP1B3; test: Immunoblot of total OATP1B3 protein in HEK293-OATP1B3 cells; format: cell-based, human; settings: 10 μM, 1 h
[4] = co-administration of dasatinib with simvastatin; cited from earlier work
[5] = tested on: GFP-OATP1B1; format: cell-based, human
[6] = cited from earlier work; remark: listed apart in the source
[7] = tested on: OATP1B1; settings: co-incubation with 10 μM; cited from earlier work
[8] = tested on: GFP-OATP1B3; format: cell-based, human
[9] = tested on: HEK293-OATP1B1 and -1B3 cells; settings: 1 h treatment; rifampicin up to 25 μM, dasatinib up to 20 μM
[10] = target: T1, OATP1B1 (Homo sapiens, UniProt Q9Y6L6)
T1 sequence (Q9Y6L6 1-691): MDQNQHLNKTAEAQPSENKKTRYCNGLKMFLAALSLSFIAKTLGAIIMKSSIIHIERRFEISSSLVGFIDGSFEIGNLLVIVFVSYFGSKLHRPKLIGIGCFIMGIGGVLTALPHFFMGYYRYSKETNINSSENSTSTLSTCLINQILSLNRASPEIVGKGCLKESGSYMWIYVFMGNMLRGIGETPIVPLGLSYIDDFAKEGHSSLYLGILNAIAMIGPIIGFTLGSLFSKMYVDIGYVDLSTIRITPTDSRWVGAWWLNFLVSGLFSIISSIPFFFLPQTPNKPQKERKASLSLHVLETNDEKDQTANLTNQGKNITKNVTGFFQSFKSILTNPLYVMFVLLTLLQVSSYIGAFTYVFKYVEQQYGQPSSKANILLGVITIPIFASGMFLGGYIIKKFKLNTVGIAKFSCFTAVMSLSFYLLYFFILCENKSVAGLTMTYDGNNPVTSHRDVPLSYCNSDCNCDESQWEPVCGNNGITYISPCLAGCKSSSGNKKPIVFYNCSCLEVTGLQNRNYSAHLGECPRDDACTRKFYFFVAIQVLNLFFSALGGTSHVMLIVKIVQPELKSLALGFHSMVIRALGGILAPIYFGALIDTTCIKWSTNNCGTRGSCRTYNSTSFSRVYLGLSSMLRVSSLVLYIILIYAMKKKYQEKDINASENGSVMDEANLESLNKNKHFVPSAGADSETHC

[11] = target: T1, OATP1B1; test: cell-based; settings: [3H]-E217βG 1 μM, 2 min, HEK293-OATP1B1
[12] = target: T2, GFP-OATP1B3 (Homo sapiens, UniProt Q9NPD5); test: [3H]-E217βG accumulation in HEK293-GFP-OATP1B3 cells
T2 sequence (Q9NPD5 1-702): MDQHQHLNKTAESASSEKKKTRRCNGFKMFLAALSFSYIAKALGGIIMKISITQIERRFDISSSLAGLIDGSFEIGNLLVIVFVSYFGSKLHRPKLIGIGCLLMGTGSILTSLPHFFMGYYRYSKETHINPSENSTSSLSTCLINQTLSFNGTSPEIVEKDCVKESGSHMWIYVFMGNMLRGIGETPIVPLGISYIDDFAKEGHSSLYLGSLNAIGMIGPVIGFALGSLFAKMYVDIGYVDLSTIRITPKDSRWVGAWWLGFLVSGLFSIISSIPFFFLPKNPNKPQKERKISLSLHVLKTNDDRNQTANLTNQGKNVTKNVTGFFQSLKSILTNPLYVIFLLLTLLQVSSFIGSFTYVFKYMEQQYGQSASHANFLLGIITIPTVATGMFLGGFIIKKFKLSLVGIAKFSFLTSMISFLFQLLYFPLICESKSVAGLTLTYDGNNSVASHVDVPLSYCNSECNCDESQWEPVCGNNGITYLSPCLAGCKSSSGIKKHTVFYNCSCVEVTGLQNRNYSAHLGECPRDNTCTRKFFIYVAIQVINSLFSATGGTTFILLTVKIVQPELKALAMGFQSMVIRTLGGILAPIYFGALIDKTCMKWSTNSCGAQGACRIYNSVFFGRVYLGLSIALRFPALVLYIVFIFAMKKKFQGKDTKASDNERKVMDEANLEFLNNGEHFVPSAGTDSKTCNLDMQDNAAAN

[13] = target: T3, GFP-OATP1B1 (Homo sapiens, UniProt Q9Y6L6); test: [3H]-E217βG accumulation in HEK293-GFP-OATP1B1 cells
T3 sequence (Q9Y6L6 1-691): T1 sequence (Q9Y6L6 1-691)

[14] = target: T4, OATP1B3 (Homo sapiens, UniProt Q9NPD5)
T4 sequence (Q9NPD5 1-702): T2 sequence (Q9NPD5 1-702)

[15] = Estimated maximum unbound inhibitor concentration at the inlet to the liver; set-up: species or system human; settings: Supplemental Table S2
[16] = tested on: OATP1B1; settings: 1–25 μM; cited from earlier work
[17] = target: T1, OATP1B1; test: OATP1B1-mediated [3H]-E1S accumulation; format: cell-based; settings: 1 μM, 30 min or 1 h
[18] = target: T4, OATP1B3; test: cell-based; settings: [3H]-E217βG 1 μM, 2 min, HEK293-OATP1B3
[19] = target: T1, OATP1B1; test: OATP1B1-mediated [3H]-pitavastatin accumulation; format: cell-based; settings: 10 μM, 1 h pre-incubation
[20] = 20 μM, up to at least 1 h (data not shown)
[21] = IC50, co-incubation, without pretreatment
[22] = IC50, pre+co-incubation (1 h pretreatment)
[23] = substrate kinetics, vehicle control pretreatment, mean ± SD, n=3
[24] = unlabeled E217βG 1–30 μM, 0.5 and 1 h

SMILES: Cc1nc(Nc2ncc(C(=O)Nc3c(C)cccc3Cl)s2)cc(N2CCN(CCO)CC2)n1 [Dasatinib]
- Total protein level of OATP1B1 vs vehicle control [1]: similar
- pKa1 [2]: 6.8
- pKa2 [2]: 10.8
- Log PO:W ([2]; neutral species octanol:buffer partition coefficient): 1.8
- Total protein level of OATP1B3 vs vehicle control [3]: similar
- Increase of AUC of simvastatin [4]: 20%
- Increase of AUC of simvastatin acid [4]: 27%
- Plasma membrane localization of GFP-OATP1B1 [5, 20]: did not cause an obvious change
- ka ([6]; first-order absorption rate constant): 6 h⁻¹
- fa ([6]; fraction available for absorption from dosage form, meta-analysis): 0.781
- Vss ([6]; from allometric scaling): 4.2 L/kg
- CLPO ([6]; observed value (CV% 106.5)): 449.4 L/h
- CLR ([6]; observed value): 0.4 L/h
- Decrease of OATP1B1-mediated [3H]-E217βG transport [7]: ~ 70%
- Plasma membrane localization of GFP-OATP1B3 [8, 20]: did not cause an obvious change
- LDH cytotoxicity [9]: negligible toxicity
- Effect of pretreatment on OATP1B1-mediated [3H]-E217βG accumulation ([10]; 5 - 20 μM for 0.5 and 1 h): significantly decreased
- IC50 [11, 21]: 4810 ± 1700 nM
- IC50 [11, 22]: 2330 ± 860 nM

SMILES: C[C@]12CC[C@@H]3c4ccc(O)cc4CC[C@H]3[C@@H]1CC[C@@H]2O[C@@H]1O[C@H](C(=O)O)[C@@H](O)[C@H](O)[C@H]1O [E217βG, estradiol 17β-D-glucuronide]
- [3H]-E217βG accumulation vs HEK293-Mock cells ([12]; 1 μM, 2 min, HEK293-GFP-OATP1B3 (data not shown)): ~ 34 fold
- [3H]-E217βG accumulation vs HEK293-Mock cells ([13]; 1 μM, 2 min, HEK293-GFP-OATP1B1 (data not shown)): 390 fold
- Vmax of E217βG transport mediated by OATP1B3 [14, 23]: 15.8 ± 1.6 pmol/mg protein/min
- Effect of pretreatment on OATP1B3-mediated transport of [3H]-E217βG [14, 24]: only slightly decreases or has no effect
- Vmax of E217βG transport mediated by OATP1B1 [10, 23]: 55.2 ± 1.6 pmol/mg protein/min
- Effect of pretreatment on OATP1B1-mediated transport of [3H]-E217βG [10, 24]: only slightly decreases or has no effect

SMILES: CO[C@H]1/C=C/O[C@@]2(C)Oc3c(C)c(O)c4c(O)c(c(/C=N/N5CCN(C)CC5)c(O)c4c3C2=O)NC(=O)/C(C)=C\C=C\[C@H](C)[C@H](O)[C@@H](C)[C@@H](O)[C@@H](C)[C@H](OC(C)=O)[C@@H]1C [Rifampicin]
- Maximum possible unbound concentration at the inlet to the liver (Iu,in,max) [15]: 10.7 µM
- Total protein level of OATP1B1 vs vehicle control [1]: similar
- Effect of pretreatment on [3H]-E217βG accumulation in HEK293-GFP-OATP1B3 ([12]; 10 μM for 0.5 and 1 h): significantly decreased
- Total protein level of OATP1B3 vs vehicle control [3]: similar
- Effect of pre-incubation on OATP1B1-mediated [3H]-E1S transport [16]: did not significantly affect
- Effect of pretreatment on OATP1B1-mediated [3H]-E1S transport [17]: did not affect
- Plasma membrane localization of GFP-OATP1B1 ([5]; 10 μM, 1–61 min): primarily localized at the plasma membrane
- Effect of pretreatment on [3H]-E217βG accumulation in HEK293-GFP-OATP1B1 ([13]; 10 μM for 0.5 and 1 h): significantly decreased
- IC50 [18, 21]: 260 ± 30 nM
- IC50 [18, 22]: 100 ± 10 nM
- Plasma membrane localization of GFP-OATP1B3 ([8]; 10 μM, 1–61 min): primarily localized at the plasma membrane
- Effect of pre-incubation on OATP1B1-mediated [3H]-pitavastatin accumulation [19]: significantly decreased
- Effect of pre-incubation on OATP1B1-mediated [3H]-E217βG transport ([10]; 1 – 25 μM for 0.5 h and 0.5 – 25 μM for 1 h, washed): significantly decreased
- Change of Km of OATP1B1-mediated E217βG transport vs control ([10]; pretreatment 10 μM, 1 h): ~ 1.5 fold
- Decrease of Vmax of OATP1B1-mediated E217βG transport vs control ([10]; pretreatment 10 μM, 1 h): ~ 3.5 fold
- IC50 [11, 21]: 740 ± 80 nM
- IC50 [11, 22]: 240 ± 30 nM
